Test results as given in US20250034129A1, “CRYSTALLINE FORMS OF (6S,7S)-6-FLUORO-7-(2-FLUORO-5-METHYLPHENYL)-3-(TETRAHYDRO-2H-PYRAN-4-YL)-5,6,7,8-TETRAHYDROPYRIDO[2,3-d]PYRIMIDINE-2,4(1H,3H)-DIONE” (MYOKARDIA, INC., priority 2023, published 2025).

Tests used:
Assay type in all cases: physicochemical
[1] = Slurry conversion of Form A in anhydrous ethanol; conditions: 60° C., 24 hours
Method: 3 g of Form A was slurried in 90 mL anhydrous ethanol at 60° C. for 24 hours.

[2] = Stability study of Form B (thermal and humidity treatments; HPLC purity, XRPD form)
Method: The stability study of Form B (before milling) was carried out at 80° C. for two weeks and at 40° C./75% RH for one month. Purity was determined by HPLC and stability was determined by XRPD. […] The stability of milled Form B was carried out as well under the same conditions. […] A purity decrease of 0.8% was detected for milled Form B after being treated at 80° C. for […].

[3] = Solid state stability in bio-relevant media; conditions: pH 1 HCl 0.1 M, pH 3.05 citrate 50 mM, pH 7.4 phosphate 50 mM, Fassif pH 6.5, Fessif pH 5.0, 37° C., 200 rpm
Method: Form B was added to bio-relevant media (pH 1 HCl 0.1 M; pH 3.05 citrate 50 mM; pH 7.4 phosphate 50 mM; Fassif pH 6.5; Fessif pH 5.0) and solid state stability in the media was determined. Procedures are described in more detail as follows:
pH 1 HCl 0.1M: […] HCl was diluted to 100 mL with water. pH 1.02
pH 3.05 citrate 50 mM: 82 mL of 0.1 M citric acid and 18 mL of 0.1 M sodium citrate were mixed together. pH=3.07.
pH 7.4 phosphate 50 mM: 50 mL of 0.2 M KH2PO4 and 39.1 mL of 0.2 M NaOH were dissolved and diluted to 200 mL with water. pH 7.39.
Fassif pH 6.5: 23.4 mg of NaOH, 224.7 mg of NaH2PO4·2H2O and 304.3 mg of NaCl were dissolved and diluted to 50 mL with water. 33.6 mg of SIF powder was dissolved in 15 mL of FaSSIF buffer solution. The solution was kept stirring and equilibrated at ambient condition with light protection for 2 hours. pH=6.37.
Fessif pH 5.0: 202.6 mg of NaOH, 432.7 mg of acetic acid, and 591.3 mg of NaCl were dissolved and diluted to 50 mL with water. pH of the solution was 4.99. 168 mg of SIF powder was dissolved in 15 mL of FeSSIF buffer solution. The solution was kept stirring and equilibrated at ambient condition with light protection for 2 hours. pH=4.94.
30-50 mg of Form B was weighed into 12 mL sample vials and then 3 mL of test media was added respectively. The suspensions were kept shaking at 200 rpm under 37° C. for 24 hours. […]

[4] = Competitive slurry experiments in ethanol
[5] = Vapor sorption analysis (TA Instrument VTI-SA+)
Method: The vapor sorption experiments for Form B were performed using a TA Instrument VTI-SA+ Vapor Sorption Analyzer. Sample (˜10 mg) was placed in a previously cleaned and tarred platinum pan then loaded into the instrument chamber. Sample was dried at 60° C. until the loss rate of 0.005 wt %/min was obtained for 10 minutes. The sample was then held isothermally at 25° C. while the % RH of the system was stepped between 4, 5, 15, 25, 35, 45, 55, 65, 75, 85, 95, 85, 75, 65, 55, 45, 35, 25, 15, 5, 4% RH. Equilibration criteria was +/−0.01 wt % for 35 min with a maximum equilibration time of 600 min at each step.

**Q.** With `Cc1ccc(F)c([C@@H]2Nc3[nH]c(=O)n(C4CCOCC4)c(=O)c3C[C@@H]2F)c1` [Form B, (6S,7S)-6-fluoro-7-(2-fluoro-5-methylphenyl)-3-(tetrahydro-2H-pyran-4-yl)-5,6,7,8-tetrahydropyrido[2,3-d]pyrimidine-2,4(1H,3H)-dione] as the compound, how does the “thermodynamic stability compared to Form A, from conversion of Form A to Form B” value [1] read?
**A.** superior thermodynamic stability

**Q.** And the “purity by HPLC after stability test” value ([2]; before milling, 40° C./75% RH for one month)?
**A.** 99.9%

**Q.** What about the “purity by HPLC after stability test” value ([2]; before milling, 80° C. for two weeks) of the same compound?
**A.** 99.9%

**Q.** And the “crystal form by XRPD after stability test” value ([2]; before milling, 80° C. for two weeks and 40° C./75% RH for one month)?
**A.** remained unchanged

**Q.** What about the “crystal form by XRPD after thermal and humidity treatments” value ([2]; milled, 40° C./75% RH and 80° C.) of the same compound?
**A.** remains unchanged

**Q.** And the “degradation after stability test” value ([2]; milled, 40° C./75% RH for four weeks)?
**A.** did not show any degradation

**Q.** What about the “purity decrease after stability test” value ([2]; milled, 80° C. for four weeks) of the same compound?
**A.** 0.8%

**Q.** And the “solid form by XRPD after 24 hours in bio-relevant media” value [3]?
**A.** remained as Form B

**Q.** And the “relative stability versus Form A in competitive slurry” value ([4]; 10° C. and 60° C.)?
**A.** more stable compared to Form A

**Q.** And the “relative stability versus Form C in competitive slurry” value ([4]; 10° C. and 60° C.)?
**A.** more stable compared to Form C

**Q.** And the “relative stability versus Form E in competitive slurry” value ([4]; 22.5° C. and 60° C.)?
**A.** more stable compared to Form E

**Q.** What about the “overall thermodynamic stability ranking compared to Forms A, C and E” value ([4]; temperature ranges covered in the experiments) of the same compound?
**A.** thermodynamically most stable anhydrous form

**Q.** What about the “hygroscopicity by vapor sorption analysis” value [5] of the same compound?
**A.** non-hygroscopic

**Q.** What about the “weight percent gain as measured by vapor sorption analyzer” value ([5]; up to 95% RH, 25° C.) of the same compound?
**A.** less than 0.05%
